Drawing on patent US20260026499A1 (priority 2022, published 2026), this text covers EC50 and ATI for two compounds.

≈ marks a conversion by molar mass, not a printed value.

For orientation: EC50 means the midpoint of the concentration-response curve. Low values mean higher potency in that assay, high ones lower potency in that assay.

The subject of this assay is tebuconazole-resistant Fusarium graminearum (TR). Description: microbe, parasite or virus in culture. As to conditions: for EC50: Fusarium graminearum, 72 h; for ATI: ZJS178 as standard reagent, TR strain. Type of assay: cell-based.

The compound `CC(C)(C)C(O)(CCc1ccc(Cl)cc1)Cn1cncn1` (racemic) [Tebuconazole (B), (RS)-1-p-chlorophenyl-4,4-dimethyl-3-(1H-1,2,4-triazol-1-ylmethyl)pentan-3-ol, reference compound] displayed an EC50 of 1.52 µg/mL (≈ 4.95 µM) and an ATI of 2.34.
In turn, `CCOC(=O)/C(C#N)=C(\N)c1ccc(N(C)CC)cc1` [ZJS178 (A), ethyl 2-cyano-3-amino-3-[4-(N-ethyl-N-methylamino)phenyl]acrylate] came in with an EC50 of 0.0356 µg/mL (≈ 0.13 µM) and an ATI of 100.00.
